The structures appear in SMILES notation.

For this experiment, the system named is HEK293T cells carrying the ATF4 luciferase reporter. In words: ATF4-Luc assay (in vitro model of vanishing white matter disease). The experiment is classed as cell-based. The following applies: Homo sapiens, HEK-293T, 1 μg/mL tunicamycin, 7 hours. As for the experimental part:
In order to test exemplary compounds of the invention in a cellular context, a stable VWMD cell line was first constructed. The ATF4 reporter was prepared by fusing the human full-length ATF4 5′-UTR (NCBI Accession No. BCO22088.2) in front of the firefly luciferase (FLuc) coding sequence lacking the initiator methionine as described in Sidrauski et al (eLife 2013). The construct was used to produce recombinant retroviruses using standard methods and the resulting viral supernatant was used to transduce HEK293T cells, which were then subsequently selected with puromycin to generate a stable cell line.
HEK293T cells carrying the ATF4 luciferase reporter were plated on polylysine coated 384-well plates (Greiner Bio-one) at 30,000 cells per well. Cells were treated the next day with 1 μg/mL tunicamycin and 200 nM of a compound of Formula (I) for 7 hours. Luminescence was measured using One Glo (Promega) as specified by the manufacturer. Cells were maintained in DMEM with L-glutamine supplemented with 10% heat-inactivated FBS (Gibco) and Antibiotic-Antimycotic solution (Gibco).
Table 2 below summarizes the EC50 data obtained using the ATF4-Luc assay for exemplary compounds of the invention.
`O=C(COc1ccc(Cl)c(F)c1)NC12CC(C(=O)NCCCc3ccccn3)(C1)C2` [Compound 254, 3-[2-(4-chloro-3-fluorophenoxy)acetamido]-N-[3-(pyridin-2-yl)propyl]bicyclo[1.1.1]pentane-1-carboxamide]: the EC50 (in general, the midpoint of the concentration-response curve) lay within 1 to 2 µM.
Then `COc1ccc(CNC(=O)C23CC(NC(=O)COc4ccc(Cl)c(F)c4)(C2)C3)nn1` [Compound 322, 3-[2-(4-chloro-3-fluorophenoxy)acetamido]-N-[(6-methoxypyridazin-3-yl)methyl]bicyclo[1.1.1]pentane-1-carboxamide], with more than 2 µM.
As for `O=C(COc1ccc(Cl)c(F)c1)NC12CCC(C(=O)NCC(=O)c3ccc(Cl)c(F)c3)(CC1)[C@H](O)C2` [Compound 347, (2R)-4-[2-(4-chloro-3-fluorophenoxy)acetamido]-N-[2-(4-chloro-3-fluorophenyl)-2-oxoethyl]-2-hydroxybicyclo[2.2.2]octane-1-carboxamide], the EC50 was less than 0.25 µM.
Next, `CC(O)(CNC(=O)C12CC(NC(=O)COc3ccc(Cl)c(F)c3)(C1)C2)c1ccc(Cl)cc1` (stereo not drawn) [Compound 317, 3-[2-(4-chloro-3-fluorophenoxy)acetamido]-N-[2-(4-chlorophenyl)-2-hydroxypropyl]bicyclo[1.1.1]pentane-1-carboxamide]: 1 to 2 µM; `O=C(COc1ccc(Cl)c(F)c1)NC12CC(C(=O)Nc3ccccn3)(C1)C2` [Compound 290, 3-[2-(4-chloro-3-fluorophenoxy)acetamido]-N-(pyridin-2-yl)bicyclo[1.1.1]pentane-1-carboxamide]: less than 0.25 µM; `O=C(COc1ccc(Cl)c(F)c1)NC12CCC(C(=O)NCC(=O)c3ccc(Cl)c(F)c3)(CC1)[C@@H](O)C2` [Compound 326, (2S)-4-[2-(4-chloro-3-fluorophenoxy)acetamido]-N-[2-(4-chloro-3-fluorophenyl)-2-oxoethyl]-2-hydroxybicyclo[2.2.2]octane-1-carboxamide]: less than 0.25 µM.
Then `O=C(COc1ccc(Cl)c(F)c1)NC12CCC(C(=O)NCc3ccc(C(F)(F)F)cn3)(CC1)CC2` [Compound 261, 4-[2-(4-chloro-3-fluorophenoxy)acetamido]-N-{[5-(trifluoromethyl)pyridin-2-yl]methyl}bicyclo[2.2.2]octane-1-carboxamide], with less than 0.25 µM.
Then `O=C(COc1ccc(Cl)c(F)c1)NC12CC(C(=O)Nc3ccccc3F)(C1)C2` [Compound 314, 3-[2-(4-chloro-3-fluorophenoxy)acetamido]-N-(2-fluorophenyl)bicyclo[1.1.1]pentane-1-carboxamide], with 0.5 to 1 µM.
Consider `O=C(COc1ccc(Cl)c(F)c1)NC12CCC(C(=O)NCc3ccc(C(F)(F)F)cc3)(CC1)[C@H](O)C2` (single isomer, unassigned) [Compound 267], for which the EC50 was less than 0.25 µM.
Next, `O=C(COc1ccc(Cl)c(F)c1)NC12CCC(C(=O)Nc3ccc(C(F)(F)F)cc3)(CC1)OC2` [Compound 337, 4-[2-(4-chloro-3-fluorophenoxy)acetamido]-N-[4-(trifluoromethyl)phenyl]-2-oxabicyclo[2.2.2]octane-1-carboxamide]: less than 0.25 µM; `O=C(COc1ccc(F)c(F)c1)NC12CC(C(=O)Nc3ccc(OC(F)(F)F)cn3)(C1)C2` [Compound 308, 3-[2-(3,4-difluorophenoxy)acetamido]-N-[5-(trifluoromethoxy)pyridin-2-yl]bicyclo[1.1.1]pentane-1-carboxamide]: less than 0.25 µM.
Then `O=C(COc1ccc(Cl)c(F)c1)NC12CC(C(=O)NCc3nc4cc(F)c(F)cc4[nH]3)(C1)C2` [Compound 331, 3-[2-(4-chloro-3-fluorophenoxy)acetamido]-N-[(5,6-difluoro-1H-benzimidazol-2-yl)methyl]bicyclo[1.1.1]pentane-1-carboxamide], with less than 0.25 µM.
Next, `O=C(COc1ccc(Cl)c(F)c1)NC12CCC(C(=O)NCc3ccc(C(F)(F)F)cc3)(CC1)C[C@H]2O` (single isomer, unassigned) [Compound 269]: less than 0.25 µM; `O=C(COc1ccc(Cl)c(F)c1)NC12CCC(C(=O)NCc3ccc(C(F)(F)F)cn3)(CC1)OC2` [Compound 335, 4-[2-(4-chloro-3-fluorophenoxy)acetamido]-N-{[5-(trifluoromethyl)pyridin-2-yl]methyl}-2-oxabicyclo[2.2.2]octane-1-carboxamide]: less than 0.25 µM; `O=C(COc1ccc(Cl)c(F)c1)NC12CCC(C(=O)NCc3ccc(C(F)(F)F)cn3)(CC1)C(=O)N2CCO` [Compound 329, 1-[2-(4-chloro-3-fluorophenoxy)acetamido]-2-(2-hydroxyethyl)-3-oxo-N-{[5-(trifluoromethyl)pyridin-2-yl]methyl}-2-azabicyclo[2.2.2]octane-4-carboxamide]: less than 0.25 µM.
As for `COc1ccc(CNC(=O)C23CCC(NC(=O)COc4ccc(Cl)c(F)c4)(CC2)C(O)C3)nn1` (stereo not drawn) [Compound 321, 4-[2-(4-chloro-3-fluorophenoxy)acetamido]-3-hydroxy-N-[(6-methoxypyridazin-3-yl)methyl]bicyclo[2.2.2]octane-1-carboxamide], the EC50 was more than 2 µM.
Next, `O=C(COc1ccc(Cl)c(F)c1)NC12CCC(C(=O)NCc3nc4cc(F)c(F)cc4[nH]3)(CC1)CC2` [Compound 324, 4-[2-(4-chloro-3-fluorophenoxy)acetamido]-N-[(5,6-difluoro-1H-benzimidazol-2-yl)methyl]bicyclo[2.2.2]octane-1-carboxamide]: less than 0.25 µM; `O=C(COc1ccc(Cl)c(F)c1)NC12CC(C(=O)NCc3cnccn3)(C1)C2` [Compound 164, 3-[2-(4-chloro-3-fluorophenoxy)acetamido]-N-[(pyrazin-2-yl)methyl]bicyclo[1.1.1]pentane-1-carboxamide]: more than 2 µM; `O=C(COc1ccc(Cl)c(F)c1)NC12CCC(C(=O)NCc3ccc(OC(F)F)nc3)(CC1)CC2` [Compound 262, 4-[2-(4-chloro-3-fluorophenoxy)acetamido]-N-{[6-(difluoromethoxy)pyridin-3-yl]methyl}bicyclo[2.2.2]octane-1-carboxamide]: less than 0.25 µM.
Turning to `O=C(COc1ccc(Cl)c(Cl)c1)NC12CCC(C(=O)Nc3ccc(OC(F)(F)F)cn3)(C1)C2` [Compound 292, 4-[2-(3,4-dichlorophenoxy)acetamido]-N-[5-(trifluoromethoxy)pyridin-2-yl]bicyclo[2.1.1]hexane-1-carboxamide], the EC50 was less than 0.25 µM.
Consider `O=C(COc1ccc(C(F)(F)F)nc1)NC12CC(C(=O)Nc3ccc(OC(F)(F)F)cn3)(C1)C2` [Compound 297, N-[5-(trifluoromethoxy)pyridin-2-yl]-3-(2-{[6-(trifluoromethyl)pyridin-3-yl]oxy}acetamido)bicyclo[1.1.1]pentane-1-carboxamide], for which the EC50 was less than 0.25 µM.
As to `O=C(COc1ccc(Cl)c(Cl)c1)NC12CC(C(=O)Nc3cccnc3)(C1)C2` [Compound 295, 3-[2-(3,4-dichlorophenoxy)acetamido]-N-(pyridin-3-yl)bicyclo[1.1.1]pentane-1-carboxamide], the EC50 was less than 0.25 µM.
For `O=C(COc1ccc(Cl)c(Cl)c1)NC12CC(C(=O)Nc3ccccn3)(C1)C2` [Compound 289, 3-[2-(3,4-dichlorophenoxy)acetamido]-N-(pyridin-2-yl)bicyclo[1.1.1]pentane-1-carboxamide], the EC50 is less than 0.25 µM.
Consider `O=C(COc1ccc(Cl)c(F)c1)NC12CCC(C(=O)NCc3ccc(C(F)(F)F)cn3)(CC1)C[C@H]2O` (single isomer, unassigned) [Compound 271], for which the EC50 is less than 0.25 µM.
On to `O=C(COc1ccc(Cl)c(F)c1)NC12CCC(C(=O)Nc3ccc(Cl)c(F)c3)(CC1)OC2` [Compound 338, 4-[2-(4-chloro-3-fluorophenoxy)acetamido]-N-(4-chloro-3-fluorophenyl)-2-oxabicyclo[2.2.2]octane-1-carboxamide], for which the EC50 is less than 0.25 µM.
For the compound `O=C(COc1ccc(Cl)c(F)c1)NC12CCC(C(=O)NCC(=O)c3ccc(Cl)cc3)(CC1)[C@H](O)C2` [Compound 276, (2R)-4-[2-(4-chloro-3-fluorophenoxy)acetamido]-N-[2-(4-chlorophenyl)-2-oxoethyl]-2-hydroxybicyclo[2.2.2]octane-1-carboxamide], the EC50 was less than 0.25 µM.
Next, `O=C(COc1ccc(Cl)c(F)c1)NC12CCC(C(=O)NCc3ccc(Cl)cn3)(CC1)OC2` [Compound 342, 4-[2-(4-chloro-3-fluorophenoxy)acetamido]-N-[(5-chloropyridin-2-yl)methyl]-2-oxabicyclo[2.2.2]octane-1-carboxamide]: less than 0.25 µM; `O=C(O)Cn1c(CNC(=O)C23CC(NC(=O)COc4ccc(Cl)c(F)c4)(C2)C3)nc2cc(F)c(F)cc21` [Compound 328, {2-[({3-[2-(4-chloro-3-fluorophenoxy)acetamido]bicyclo[1.1.1]pentane-1-carbonyl}amino)methyl]-5,6-difluoro-1H-benzimidazol-1-yl}acetic acid]: 1 to 2 µM.
Consider `O=C(NC12CC(C(=O)Nc3ccc(OC(F)(F)F)cn3)(C1)C2)c1ccc(OC(F)(F)F)cn1` [Compound 315, 5-(trifluoromethoxy)-N-(3-{[5-(trifluoromethoxy)pyridin-2-yl]carbamoyl}bicyclo[1.1.1]pentan-1-yl)pyridine-2-carboxamide], for which the EC50 was 0.5 to 1 µM.
Next, `O=C(COc1ccc(Cl)c(F)c1)NC12CC(C(=O)NCCCc3cccnc3)(C1)C2` [Compound 253, 3-[2-(4-chloro-3-fluorophenoxy)acetamido]-N-[3-(pyridin-3-yl)propyl]bicyclo[1.1.1]pentane-1-carboxamide]: 1 to 2 µM.

The record behind these values is US20240173307A1, “MODULATORS OF THE INTEGRATED STRESS PATHWAY” (Calico Life Sciences LLC, priority 2017, published 2024).
